Results: ChEMBL document CHEMBL3856225, “Design, synthesis and biological evaluation of 5-benzylidene-2-iminothiazolidin-4-ones as selective GSK-3β inhibitors” (Eur J Med Chem, 2016)

Assays:
[1] = target: T1, Glycogen synthase kinase-3 beta (Homo sapiens, UniProt P49841); test: Inhibition of His-tagged full length human recombinant GSK-3beta expressed in Baculovirus at 0.5 uM using Ser/Thr9 peptide as substrate by Z' LYTE assay relative to control
Target sequence in this assay (P49841 whole entry, looked up): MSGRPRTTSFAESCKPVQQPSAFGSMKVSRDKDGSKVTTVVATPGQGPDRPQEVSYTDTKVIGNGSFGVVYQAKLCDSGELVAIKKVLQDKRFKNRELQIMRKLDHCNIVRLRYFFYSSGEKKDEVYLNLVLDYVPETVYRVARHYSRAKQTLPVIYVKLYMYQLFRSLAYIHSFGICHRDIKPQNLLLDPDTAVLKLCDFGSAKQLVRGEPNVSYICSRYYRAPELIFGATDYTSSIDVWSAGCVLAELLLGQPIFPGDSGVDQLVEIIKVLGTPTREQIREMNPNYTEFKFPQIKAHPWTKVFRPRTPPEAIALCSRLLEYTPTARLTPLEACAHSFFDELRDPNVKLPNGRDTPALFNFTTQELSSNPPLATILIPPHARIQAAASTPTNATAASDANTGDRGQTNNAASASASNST

[2] = target: T1, Glycogen synthase kinase-3 beta; test: Inhibition of His-tagged full length human recombinant GSK-3beta expressed in Baculovirus using Ser/Thr9 peptide as substrate by Z' LYTE assay
Target sequence in this assay (P49841 whole entry): as the sequence (P49841 whole entry, looked up) above

[3] = target: Cyclin-dependent kinase 2 (Homo sapiens) (UniProt P24941); test: Inhibition of GST-tagged human recombinant CDK2 assessed as residual activity at 2 uM using Ser/Thr12 peptide as substrate by Z' LYTE assay relative to control

Row | SMILES | inhibition [1] | IC50 [2] | Activity [3]
1 | COc1cc(/C=C2\SC(=N)NC2=O)ccc1O | > 50% | – | –
2 | O=C1N=C(NCc2ccccc2)S/C1=C\c1ccc(O)cc1 | > 50% | 27.1 nM | 63.2%
3 | COc1ccc(/C=C2\S/C(=N\Cc3ccccc3)NC2=O)cc1OC | > 50% | 44.3 nM | 53.8%
4 | O=C1N/C(=N/c2ccccc2)S/C1=C\c1ccc(F)cc1 | > 50% | 40 nM | 68.9%
5 | N=C1NC(=O)/C(=C/c2ccc(O)c(C(=O)O)c2)S1 | > 50% | 84.8 nM | –
6 | O=C1N/C(=N/Cc2ccccc2)S/C1=C\c1ccc(Cl)c([N+](=O)[O-])c1 | > 50% | 24 nM | 68.4%
7 | COc1ccc(/C=C2\SC(=N)NC2=O)cc1OC | > 50% | 80.5 nM | –
8 | O=C1N/C(=N/c2ccccc2)S/C1=C\c1ccc(O)cc1 | > 50% | 27.7 nM | 69.6%
9 | CCOc1cc(/C=C2\S/C(=N\Cc3ccccc3)NC2=O)ccc1O | > 50% | 51.7 nM | 39.1%
10 | COc1ccc(/C=C2\S/C(=N\Cc3ccccc3)NC2=O)cc1[N+](=O)[O-] | > 50% | 2.1 nM | 73%
